# Test results reported in PMC4552636, “Pharmacokinetics, Tissue Distribution, and Anti-Lipogenic/Adipogenic Effects of Allyl-Isothiocyanate Metabolites” (PLoS ONE, 2015).
# What was measured:
# [1] = rat, in vivo, po
# Protocol: (§5) Male Sprague-Dawley rats with an average weight of approximately 250 g were purchased from Orient Bio Inc. (Seoul, South Korea) and acclimatized to the laboratory conditions (12:12 h light-dark cycle, temperature of 24°C, and humidity of 55%) for 1 week. Animals were provided the American Institute of Nutrition-93 (AIN-93) diet and water ad libitum during acclimation. On the dosing day, rats were fasted for 6 h and then administered AITC (25 mg/kg of body weight) as a suspension (1 mL) in polyethylene glycol using an oral zonde needle. After a single-dose oral administration of AITC, rats were sacrificed under anesthesia (80 mg/kg ketamine + 8 mg/kg xylazine) at different time points after dosing. Blood samples were collected from the abdominal aorta in heparinized syringes. Samples were immediately centrifuged at 3,000 × g for 10 min and the resulting plasma samples were kept frozen at -80°C until analysis. The liver, heart, spleen, kidney, and lung were rapidly collected from each animal at different time points, individually wrapped in aluminum foil, snap-frozen in liquid nitrogen, and stored frozen at -80°C until use.
# (§6) Dissected tissue was thawed, rinsed with ice-cold saline, blotted dry, and weighed. Each tissue sample (100 mg) was homogenized in 100 μL phosphate-buffered saline (PBS) using homogenizer (MP Fastprep instrument, MP Biomedical, Solon, OH, USA). The homogenates were transferred into clean tubes and mixed with 700 μL of methanol by vortexing for 5 min. Homogenates were centrifuged at 15,700 × g for 15 min at 4°C, and the supernatants were collected and evaporated to dryness at room temperature under a stream of nitrogen gas. The residue was diluted with 100 μL 70% methanol.
# (§7) HPLC analysis was performed using a Jasco HPLC system equipped with a Jasco UV-2089 plus quaternary gradient pump, a Jasco MD-2010 plus multiple-wave-length detector, and Borwin chromatography software, version 1.5 (Jasco Inc., Easton, MD, USA). Separation was achieved using an XTerra RP18 column (4.6 × 250mm, 5 μM, Waters, Milford, MA, USA). […]
# [2] = Plasma pharmacokinetics of AITC metabolites after oral administration of AITC (HPLC); format: in vivo; conditions: male, Sprague-Dawley, rat plasma, metabolite after oral AITC 25 mg/kg, n = 5; for Cmax: read-out: Cmax (maximum plasma concentration); for half-life: read-out: T1/2 (elimination half-life) (converted); for AUC(0-t): unit printed in text b47 only, read-out: AUC (0-8h)
# Protocol: Methanol (700 μL) was added to 300 μL of serum and the mixture was mixed by vortexing for 5 min. […] The internal standards (synthesized metabolites) were added to the plasma samples for validation.
# (§1) Non-compartmental (mode-independent) nutrikinetic parameters were derived using PK Solutions software version 2.0 (Summit Research Services, Montrose, CO, USA). The maximum plasma concentration (Cmax), time to maximum plasma concentration (Tmax), and the elimination half-life (t1/2) were estimated from the plasma concentration-time curve. The area under the curve (AUC) for the plasma concentration over time was calculated using the trapezoidal rule.
# A validated analytical method was employed to study the pharmacokinetic profiles of AITC metabolites after oral administration of 25 mg/kg AITC dose to rats. The mean plasma concentration-time curves of the AITC metabolites and the corresponding pharmacokinetic parameters are shown in Fig 2B and 2C . The pharmacokinetic analysis was performed with PK solution 2.0 software, using a non-compartmental model for data analysis. After oral administration of AITC, GSH-AITC and NAC-AITC were detected in the plasma. The Tmax values for GSH-AITC and NAC-AITC were similar at 0.5h. […] The areas under the curve of the concentration-time profile (AUC0-8h) of GSH-AITC and NAC-AITC were 1.3 and 12.33 μg·h/mL, respectively.
# [3] = Urine concentration and pharmacokinetics of AITC metabolites after oral AITC (HPLC); format: in vivo; conditions: rat urine; for Detection in urine samples: HPLC
# Protocol: as §1
# In addition to our evaluations of plasma levels, we also determined the concentration of AITC metabolites in urine using HPLC. […] NAC-AITC was mostly excreted within 8 h (Fig 3C).
# [4] = test system: 3T3-L1 preadipocytes; experiment: MDI-induced adipocyte differentiation of 3T3-L1 preadipocytes, Oil Red O staining; format: cell-based; conditions: treated days 0 to 2, stained after 8 days
# Protocol: (§2) 3T3-L1 pre-adipocyte cells were purchased from the ATCC (Manassas, VA, USA). Cells were maintained in DMEM supplemented with 10% calf serum (CS), 100 U/mL penicillin and 100 μg/mL streptomycin at 37°C in a 5% CO2 incubator. The cells were seeded onto a 6-well plate at a density of 4 × 10^5 cells per well, and cell differentiation was induced. In brief, beginning at 2 days post-confluence (day 0), cells were incubated for 2 days in DMEM containing 0.5 mM 3-isobutyl-1-methylxanthine (IBMX), 1 μM dexamethasone, 1 μg/mL of insulin, and 10% fetal bovine serum (FBS). After induction, the medium was replaced with DMEM containing 10% FBS and 1 μg/mL of insulin, and the cells were incubated for 2 more days, after which the cells were maintained in DMEM containing 10% FBS until they reached maturity. From days 0 to 2, the cells were exposed to the AITC metabolites.
# (§3) Oil Red O staining was performed on day 8. Prior to quantification, the cells were fixed in 10% neutral formalin for 1 h at room temperature, washed with PBS, and stained for 1 h with 0.5% Oil Red O in 60% isopropanol. After staining, the cells were washed with distilled water and observed under a fluorescence microscope. […] The optical density was measured at a wavelength of 490 nm using microplate reader (Tecan Infinite 200 PRO, Männedorf, Switzerland).
# [5] = test system: PPAR-γ, C/EBPα, and FAS; experiment: Western blotting of adipogenesis proteins in 3T3-L1 cells; format: cell-based
# Protocol: as §2
# (§4) 3T3-L1 adipocytes were scraped into a lysis buffer containing 40 mM HEPES (pH 7.4), 120 mM NaCl, 1 mM EDTA, 50 mM NaF, 1.5 mM Na3VO4, 10 mM β–glycerophosphate, and 1% Triton X-100, supplemented with EDTA-free phosphatase and a protease inhibitor cocktail (#78441; Thermo Scientific, Waltham, MA, USA). Next, the cells were lysed by sonication twice for 15 sec on ice using a sonicator (Misonix, Farmingdale, NY, USA). […]
# [6] = test system: mTORC1; experiment: mTORC1 activity (S6K1 and 4EBP1 phosphorylation) during 3T3-L1 adipocyte differentiation, western blot; format: cell-based
# Protocol: as §2, §4
# [7] = test system: Hepa 1–6 cells; experiment: Oleic acid-induced lipid accumulation in hepatocytes, Oil Red O; format: cell-based, mouse; conditions: hepatocytes (Hepa 1–6), 100 μM oleic acid, 24h
# Protocol: HepG2 (human hepatoma cell line) and Hepa 1–6 (mouse hepatoma cell line) cells were obtained from ATCC (Manassas, VA, USA) and grown in high glucose DMEM supplemented with 10% FBS, 100 U/mL penicillin, and 100 μg/mL streptomycin. For examination of lipid accumulation in hepatocytes, the cells were treated with AITC metabolites in presence of 100 μM oleic acid for 24h.
# as §3
# Fig 6 Inhibitory effects of GSH-AITC and NAC-AITC on oleic acid-induced lipid accumulation. […] The intracellular triglyceride levels were indexed by quantifying the Oil Red O extracted from the cells by spectroscopy performed at an […] of 490 nm (B). The SCD1, FAS, and AMPK levels in cell lysates were detected by western blot analysis. To compare and quantify levels of proteins, the density of each band was measured using ImageJ software with β–actin as an internal reference (C). […]
# [8] = design: method as in PMID 3961819; conditions: cellular medium; cited from earlier work
# [9] = Tissue distribution of AITC metabolites after oral AITC (HPLC); conditions: rat liver, kidney, spleen, heart, lung; 0.5-8 h after oral AITC
# Protocol: as §5, §6, §7
# [10] = male, Sprague-Dawley, 25 mg/kg, n = 5
Tmax [2],Cmax [2],half-life [2],AUC(0-t) [2],Detection in urine samples [3],"Cmax [3, 10]","Tmax [3, 10]","AUC(0-t) ([3]; male, Sprague-Dawley, 25 mg/kg, n = 5, read-out: AUC (0-8h) in urine)","half-life ([3]; male, Sprague-Dawley, 25 mg/kg, n = 5, read-out: T1/2 in urine (converted))",Time within which mostly excreted in urine [3],Structure (SMILES),Detection of parent molecule in plasma and tissues [1],Differentiation of 3T3-L1 preadipocytes (Oil Red O) [4],"Levels of PPAR-γ, C/EBPα, and FAS [5]",S6K1 phosphorylation on Thr389 [6],Oleic acid-induced lipid accumulation [7],Fraction converted to free AITC [8],Tissue deposition (by tissue weight) [9]
,,,,,,,,,,"C=CCN=C=S [AITC, Allyl-isothiocyanate]",not detected,,,,,,
0.5 h,1470 ng/mL,0.92 h,1300 ng·h/mL,not detected,,,,,,"C=CCNC(=S)SC[C@H](NC(=O)CC[C@H](N)C(=O)O)C(=O)NCC(=O)O [GSH-AITC, S-(N-allylthiocarbamoyl)-L-glutathione]",,inhibited differentiation of preadipocytes,reduced,reduced,suppressed,9–15%,"observed in the liver, followed by the kidney, spleen, heart, and lung"
0.5 h,14000 ng/mL,2.65 h,12300 ng·h/mL,successfully quantified,2260 ng/mL,2.66 h,8110 ng·h/mL,1.44 h,≤ 8 h,"C=CCNC(=S)SC[C@H](NC(C)=O)C(=O)O [NAC-AITC, N-acetyl-S-(N-allylthiocarbamoyl)- l-cysteine]",,inhibited differentiation of preadipocytes,reduced,reduced,suppressed,,observed in the kidney
